Data: ChEMBL document CHEMBL5725403, “Compounds and pharmaceutical compositions thereof for the treatment of inflammatory disorders” (2017)
pIC50: −log10 of the molar value.

Molecular target: Autotaxin (Homo sapiens, UniProt Q13822)
Experiment: Human ENPP2 (hENPP2) Assay: Compound IC50 values are determined in a hENPP2 (UniProtKB/SwissProt Sequence ref Q13822) biochemical assay using LPC as substrate. […] The enzyme is diluted in 50 mM Tris-HCl pH 8.5, 500 mM NaCl, 5 mM KCl, 10 mM CaCl2, 0.1% fatty acid free BSA in a total volume of 10 μL. the reaction is started by the addition of 10 μL of 150 μM LPC (palmitoyl 16:0) diluted in the same buffer as described above and the mixture is incubated at 37° C. for 30 min. The reaction is terminated and choline quantified by the addition of a 25 μL of a mixture containing 0.6 U/mL of choline oxidase, 0.6 U/mL of peroxydase, 1.8 mM TOOS, 1.2 mM amino-antipyrine, 20 mM EGTA (stop-developer solution) diluted in the buffer described above. […] is read on the Envision after an incubation of 30 min at room temperature (Excitation 555 nm, excitation light=70%).

pIC50: < 6.00
SMILES: CCc1nc2ccc(C3CCN(S(C)(=O)=O)CC3)cn2c1N(C)c1nc(-c2ccc(F)cc2)c(Br)s1
